Values quoted from earlier work as cited in publication PMC11949389 (Polish Journal of Microbiology, 2025).
Values after ≈ are worked out from the molar mass of the structure shown.

Columns and labels:
[1] = tested on: Extended-spectrum beta-lactamases Escherichia coli; details: ESBL Escherichia coli; ref Khan et al. 2020
[2] = tested on: Staphylococcus aureus Pseudomonas fluorescens; details: ref Wang et al. 2020b
[3] = tested on: Mupirocin-susceptible Staphylococcus aureus; details: ref Kwiatkowski et al. 2019
Escherichia coli = details: Escherichia coli; ref Owen et al. 2019; Sayout et al. 2020; Noumi et al. 2023
[4] = tested on: Methicillin-susceptible Staphylococcus aureus; details: ref Owen et al. 2019
various microorganisms = details: across various microorganisms; ref Owen et al. (2019)
Candida albicans [5] = details: Candida albicans; ref Sharifzadeh et al. 2019; Iraji et al. 2020; Shaban et al. 2020; Stringaro et al. 2022; Biernasiuk et al. 2022
Streptococcus suis = details: ref de Aguiar et al. 2019
[6] = tested on: carbapenem and polymyxin-resistant Klebsiella pneumoniae; details: ref de Souza et al. (2021)
[7] = tested on: bacteria co-isolated with C. albicans; details: ref Touil et al. (2020)
Malassezia pachydermatis = details: ref Schlemmer et al. 2019, Sim et al. 2019
Pseudomonas sp. = details: ref Caballero Gómez et al. 2022
[8] = tested on: C. albicans and co-isolated bacteria; details: carvacrol combined with cuminaldehyde; ref Touil et al. (2020)
[9] = tested on: Methicillin-resistant Staphylococcus aureus; details: Methicillin-resistant Staphylococcus aureus; ref Owen et al. 2019
[10] = tested on: Vancomycin-resistant Enterococcus (VRE); details: Vancomycin-resistant Enterococcus (VRE); ref Owen et al. 2019
HSV-2 = details: HSV-2, 1 mmol/l; ref Wang et al. (2020a)
[11] = tested on: carbapenem-resistant Klebsiella pneumoniae (CRKP) strains; details: with meropenem, ref Köse (2022)
Candida tropicalis = details: Candida tropicalis; ref Iraji et al. 2020; Stringaro et al. 2022
[12] = tested on: Mycobacterium biofilms, including Mycobacterium abscessus and Mycobacterium fortuitum; details: even at sub-MIC concentrations; ref Marini et al. (2019)
[13] = tested on: β-haemolytic Streptococcus spp.; details: ref Sim et al. 2019
[14] = tested on: Vibrio anguillarum, and Vibrio harveyi; details: ref Rossi et al. (2021)
[15] = tested on: Vancomycin-sensitive Enterococcus (VSE)
Acinetobacter baumannii = details: combined with ciprofloxacin, ref Aleksic Sabo et al. (2021)
[16] = tested on: Staphylococcus pseudintermedius
Candida krusei = details: Candida krusei; ref Sharifzadeh et al. 2019; Iraji et al. 2020; Biernasiuk et al. 2022; Stringaro et al. 2022
Salmonella Thyphimurium = details: ref Giovagnoni et al. 2020
[17] = tested on: amphotericin B-resistant C. albicans; details: varying among Candida isolates; ref Touil et al. (2020)
[18] = tested on: Ciprofloxacin-resistant Pseudomonas aeruginosa; details: Ciprofloxacin-resistant Pseudomonas aeruginosa; ref Owen et al. 2019
[19] = tested on: Pseudomonas aeruginosa Enterococcus faecalis; details: ref Mechmechani et al. 2022
Pseudomonas aeruginosa = details: Pseudomonas aeruginosa; ref Owen et al. 2019; Sim et al. 2019; Noumi et al. 2023
[20] = tested on: Mupirocin-resistant Staphylococcus aureus; details: ref Kwiatkowski et al. 2019
Candida albicans [21] = details: ref Shaban et al. 2020
Enterococcus sp. = details: ref Caballero Gómez et al. 2022
Proteus mirabilis = details: ref Sim et al. 2019
[22] = Candida auris, ref Shaban et al. 2020

Cc1ccc(C(C)C)cc1O [Carvacrol]
Mechanisms of action [1]: • Disintegration of bacterial cell membranes • Elevation of reactive oxygen species levels • Protected macrophage cells from bacterial invasion • Increased the release of K+ ions, ATP, and cellular DNA • Anti-biofilm properties | Mechanisms of action [2]: • Targeted extracellular polymeric substances • Disruption of biofilm structures | MIC/Sensitivity [3]: 950 µg/mL (≈ 6.32 mM) | MIC/Sensitivity (Escherichia coli): 297.4356 mg/mL (≈ 1980 mM) | MIC/Sensitivity [4]: 297.4356 mg/mL (≈ 1980 mM) | MIC (various microorganisms): 0.99 to 15.81 mM | MIC/Sensitivity (Candida albicans [5]): 43.75 to 250 µg/mL | MIC/Sensitivity (Streptococcus suis): 156.25 µg/mL (≈ 1.04 mM) | MIC/Sensitivity (Candida glabrata; Candida glabrata, ref Sharifzadeh et al. 2019, Iraji et al. 2020, Biernasiuk et al. 2022, Stringaro et al. 2022): 62.50 to 195 µg/mL | FICI (Candida glabrata; with voriconazole, C. glabrata, ref Sharifzadeh et al. (2019)): 0.412–0.625 | MIC [6]: 130 to 260 µg/mL | median MIC (Candida auris; C. auris, ref Shaban et al. (2020)): 125 µg/mL | MIC (Candida auris; [22]): 125 µg/mL (≈ 0.832 mM) | MIC/Sensitivity (Candida auris; [22]): 125 µg/mL (≈ 0.832 mM) | MIC/Sensitivity (Campylobacter jejuni; Campylobacter jejuni, ref Šimunović et al. 2020): 31.25 µg/mL (≈ 0.208 mM) | MIC (Campylobacter jejuni; ref Šimunović et al. (2020)): 31.25 µg/mL (≈ 0.208 mM) | MIC [7]: 1,000 μg/ml | MIC/Sensitivity (Malassezia pachydermatis): 10 to 585 µg/mL | MIC/Sensitivity (Pseudomonas sp.): 100 to 400 µg/mL | MIC in combination [8]: 60 to 250 µg/mL | MIC/Sensitivity [9]: 148.7178 mg/mL (≈ 990 mM) | MIC/Sensitivity [10]: 593.369 mg/mL (≈ 3950 mM) | virus release rate (HSV-2): 33.67% | FICI ([11]; checkerboard assays, CRKP): 0.5 | CRKP strains with synergy [11]: 8 of 25 | MIC/Sensitivity (Candida tropicalis): 97.5 µg/mL (≈ 0.649 mM) | effect on biofilms [12]: inhibited biofilm formation and disrupted pre-formed biofilms | MIC/Sensitivity ([13]; β-haemolytic Streptococcus spp.): 146 to 292 µg/mL | MIC90 ([13]; β-hemolytic Streptococcus): 292 to 400 µg/mL | MIC [14]: 0.94 to 7.5 mM | MIC/Sensitivity ([15]; Vancomycin-sensitive Enterococcus (VSE), ref Owen et al. 2019): 593.37 µg/mL (≈ 3.95 mM) | reduction in vancomycin’s MIC ([15]; binary combinations with vancomycin, VSE, ref Owen et al. (2020)): four to eight-fold reduction | FICI (Acinetobacter baumannii): 0.25–0.32 | MIC90 ([16]; S. pseudintermedius, ref Sim et al. (2019)): 146 µg/mL (≈ 0.972 mM) | MIC/Sensitivity ([16]; Staphylococcus pseudintermedius, ref Sim et al. 2019): 146 to 292 µg/mL | MIC/Sensitivity (Candida krusei): 87.50 to 125 µg/mL | Mechanisms of action (Salmonella Thyphimurium): • Anti-inflammatory effects • Anti-oxidant properties • Enhanced epithelial barrier integrity • Reduction of bacterial translocation • Improved transepithelial electrical resistance • Inhibited bacterial growth | MIC [17]: 250–1,000 μg/ml | MIC/Sensitivity [18]: 4749.9564 mg/mL (≈ 31600 mM) | Mechanisms of action [19]: • Cell membrane destruction • Leakage of the intercellular pool • Anti-biofilm properties • Increased extracellular K+ ions concentrations | MIC/Sensitivity (Pseudomonas aeruginosa): 585 to 1120 µg/mL | MIC/Sensitivity [20]: 480 µg/mL (≈ 3.2 mM) | Mechanisms of action (Candida albicans [21]): • Reduced proteinase production | MIC/Sensitivity (Enterococcus sp.): 100 to 450 µg/mL | MIC/Sensitivity (Proteus mirabilis): 146 to 292 µg/mL
